Results reported in patent US9333272B2, “Fibrin binding peptide conjugates for diagnostic and therapeutic applications” (Bracco Imaging SpA, priority 2006, dated 2016).

How the values were obtained:
[1] = target: T1, fibrin in tumor, TRAMP prostate tumor (Mus musculus, UniProt E9PV24+Q8K0E8+Q8VCM7); assay: In vivo MRI, transgenic adenocarcinoma mouse prostate model (TRAMP), Example 17; details: 100 μmol/kg iv; control
T1 construct: from tissue; host or cells: tumor stroma of living mice (BALB-neuT mammary tumor, TRAMP prostate tumor, Neuro-2a neuroblastoma in A/J mice)
T1 sequence (E9PV24 20-557 isoform E9PV24-2 limits assumed): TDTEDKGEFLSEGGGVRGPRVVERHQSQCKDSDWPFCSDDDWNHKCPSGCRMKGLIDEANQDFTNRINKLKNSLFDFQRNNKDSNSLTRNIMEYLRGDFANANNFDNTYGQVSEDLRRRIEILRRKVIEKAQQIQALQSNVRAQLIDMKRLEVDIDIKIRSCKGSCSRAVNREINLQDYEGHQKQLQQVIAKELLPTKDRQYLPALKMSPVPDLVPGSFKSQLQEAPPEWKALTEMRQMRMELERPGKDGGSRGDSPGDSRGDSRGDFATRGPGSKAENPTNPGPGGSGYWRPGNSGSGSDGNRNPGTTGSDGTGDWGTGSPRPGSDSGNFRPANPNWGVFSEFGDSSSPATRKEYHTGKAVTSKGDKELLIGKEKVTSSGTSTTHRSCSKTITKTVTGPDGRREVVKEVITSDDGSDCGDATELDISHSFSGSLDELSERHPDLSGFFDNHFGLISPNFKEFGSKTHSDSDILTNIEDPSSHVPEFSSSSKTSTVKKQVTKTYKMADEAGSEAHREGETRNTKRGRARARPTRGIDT
T1 sequence (Q8K0E8 35-481 limits assumed): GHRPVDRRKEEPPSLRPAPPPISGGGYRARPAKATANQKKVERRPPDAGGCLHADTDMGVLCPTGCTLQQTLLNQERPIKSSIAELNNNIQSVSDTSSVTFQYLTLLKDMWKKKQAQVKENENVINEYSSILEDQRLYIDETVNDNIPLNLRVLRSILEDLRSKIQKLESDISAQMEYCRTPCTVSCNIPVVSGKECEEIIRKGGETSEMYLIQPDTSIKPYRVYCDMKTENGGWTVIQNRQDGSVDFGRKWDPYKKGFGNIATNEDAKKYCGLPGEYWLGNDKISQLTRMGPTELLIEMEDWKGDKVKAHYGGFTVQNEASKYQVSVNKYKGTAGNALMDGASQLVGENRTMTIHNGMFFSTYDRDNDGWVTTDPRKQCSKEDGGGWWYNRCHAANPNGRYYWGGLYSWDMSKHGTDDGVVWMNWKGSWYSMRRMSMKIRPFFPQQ
T1 sequence (Q8VCM7 26-436): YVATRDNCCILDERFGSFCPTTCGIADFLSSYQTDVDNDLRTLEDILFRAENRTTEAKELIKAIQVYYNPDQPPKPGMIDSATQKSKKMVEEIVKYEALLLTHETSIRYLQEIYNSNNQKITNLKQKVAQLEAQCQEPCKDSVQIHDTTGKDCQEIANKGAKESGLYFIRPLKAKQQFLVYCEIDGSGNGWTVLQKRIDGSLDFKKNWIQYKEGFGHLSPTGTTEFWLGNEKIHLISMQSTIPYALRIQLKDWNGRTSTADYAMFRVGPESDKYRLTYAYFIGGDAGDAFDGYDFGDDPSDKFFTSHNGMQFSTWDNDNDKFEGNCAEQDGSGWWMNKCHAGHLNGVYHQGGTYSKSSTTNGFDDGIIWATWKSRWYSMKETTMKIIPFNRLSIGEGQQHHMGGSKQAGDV
Procedure: This test has been performed in a transgenic adenocarcinoma mouse prostate model (TRAMP) developed by introducing a PB promoter—SV40 T antigen fusion transgene (PB-Tag) into the germ line of C57BL/6 inbred mice.
Two TRAMP mice were treated with ProHance® at 100 μmol/kg iv (control), and the day after with Chelate Complex 2 or with Chelate Complex 5 at 25 μmol/kg iv. T1 weighted SE images were acquired pre- and post-contrast injection and the kinetic of enhancement in the tumor was followed up to 3 h post-test compound administration.

[2] = target: T2, fibrin in tumor, mammary tumor mouse model (BALB-neuT) (Mus musculus, UniProt E9PV24+Q8K0E8+Q8VCM7); assay: In vivo MRI, mammary tumor mouse model (BALB-neuT), Example 16; details: 100 μmol/kg; reference compound
T2 construct: from tissue; host or cells: tumor stroma of living mice (BALB-neuT mammary tumor, TRAMP prostate tumor, Neuro-2a neuroblastoma in A/J mice)
T2 sequence (E9PV24 20-557 isoform E9PV24-2 limits assumed): T1 sequence (E9PV24 20-557 isoform E9PV24-2 limits assumed)
T2 sequence (Q8K0E8 35-481 limits assumed): T1 sequence (Q8K0E8 35-481 limits assumed)
T2 sequence (Q8VCM7 26-436): T1 sequence (Q8VCM7 26-436)
Procedure: The test has been performed in a mammary tumor mouse model (BALB-neuT). Mice were treated with Chelate Complex 2 of the invention, 25 μmol/kg, injected iv, and with ProHance® at 100 μmol/kg. Signal enhancement of the tumor was followed up to 3 h after contrast administration.
Successive T1 weighted SE images were acquired pre- and post-injection of the test compounds and some examples are reported in FIGS. 6 and 7. Images are related to successive slices from the same mouse acquired at different time points post contrast. In particular, FIG. 6 includes images post-injection of chelate Complex 2 at 25 μmol/kg (arrows indicate tumor) and FIG. 7 includes analogous images post administration of ProHance®.

SMILES: CC(O)CN1CCN(CC(=O)[O-])CCN(CC(=O)[O-])CCN(CC(=O)[O-])CC1.[Gd+3] (centres unmarked) [ProHance®]
- Tumor signal enhancement (T1 weighted MRI), in words [1]: very weak signal enhancement
- Tumor signal enhancement (T1 weighted MRI), in words [2]: signal distribution only on the border and no signal enhancement inside the tumors after 55 min
